Biological target: T1, prolectin (Homo sapiens, UniProt Q6ZS10)
T1 sequence (Q6ZS10 194-378 limits assumed): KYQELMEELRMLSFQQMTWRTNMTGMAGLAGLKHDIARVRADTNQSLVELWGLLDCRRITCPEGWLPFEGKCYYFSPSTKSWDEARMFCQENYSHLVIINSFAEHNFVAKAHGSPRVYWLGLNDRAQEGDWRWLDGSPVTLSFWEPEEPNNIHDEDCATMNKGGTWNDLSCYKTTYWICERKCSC
Assay: solid-phase competition binding, […]-Man-BSA reporter
Conditions: competitive; immobilised extracellular domain; Ca2+-dependent site

Compound | Relative KI
C[C@@H]1OC(O)[C@@H](O)[C@H](O)[C@@H]1O (stereo partly shown) [Fuc] | 1.1 ± 0.1 relative to KI of αMe-Man
CC(=O)N[C@H]1C(O)O[C@H](CO)[C@@H](O)[C@@H]1O (stereo partly shown) [GlcNAc] | 1.2 ± 0.1 relative to KI of αMe-Man
CC(=O)N[C@H]1C(O)O[C@H](CO)[C@@H](O[C@@H]2O[C@@H](C)[C@@H](O)[C@@H](O)[C@@H]2O)[C@@H]1O[C@@H]1O[C@H](CO)[C@H](O)[C@H](O)[C@H]1O (stereo partly shown) [Le^a] | 0.22 ± 0.01 relative to KI of αMe-Man
CC(=O)N[C@H]1C(O)O[C@H](CO)[C@@H](O[C@@H]2O[C@H](CO)[C@H](O)[C@H](O)[C@H]2O)[C@@H]1O[C@@H]1O[C@@H](C)[C@@H](O)[C@@H](O)[C@@H]1O (stereo partly shown) [Le^x] | 0.72 ± 0.08 relative to KI of αMe-Man
OC[C@H]1OC(O)[C@@H](O)[C@@H](O)[C@@H]1O (stereo partly shown) [Man] | 1.2 ± 0.1 relative to KI of αMe-Man
CO[C@H]1O[C@H](CO)[C@H](O)[C@H](O)[C@H]1O [αMe-Gal] | > 30 relative to KI of αMe-Man
CO[C@H]1O[C@H](CO)[C@@H](O)[C@H](O)[C@H]1O [αMe-Glc] | 3.2 ± 0.1 relative to KI of αMe-Man

Source: PMC2709368 (The Journal of Biological Chemistry, 2009)
